In patent US5631246A, “Use of PAF” (The Canadian Red Cross Society, priority 1993, dated 1997):
Read-outs that look alike come from different tables or passages of the source.

Key:
[1] = target: PAF receptor (Homo sapiens, UniProt P25105); experiment: Effect of PAF receptor antagonist on release of vWf from ECs; conditions: for % Inhibition of vWf release: 10 μM BTP-dioxolane
Procedure: (§2) Media with or without thrombin (@5 units/mL) served as positive and negative controls respectively. ECs were incubated for 1, 10, 20 or 30 minutes and 1, 2, 4, 6 and 24 hours in the PAF and thrombin time course studies. The EC conditioned media were recovered, centrifuged to remove any cell debris, and then frozen at -80° C. for a maximum period of 4 weeks prior to analyses.
(§3) Endothelial cells (ECs) were harvested from human umbilical cord vein as described by Jaffe et al. ((1973) Culture of Human Endothelial Cells Derived from Umbilical Veins: Identification by Morphologic and Immunologic Criteria, J. Clin. Invest. 52:2745-2756) and modified by Hashemi et al. (1990, supra). Endothelial cells were subcultured in 0.2% (w/v) gelatin-coated, 12-well Linbro™ polystyrene, tissue culture plates (Flow Laboratories, Mississauga, Ontario), then plated at a density of 1-2×10^4 /well and grown to confluence.
(§4) The standard consisted of a pool of plasma from 20 normal individuals previously determined to contain 1 unit of vWf per mL by the procedure of Zimmerman et al. (1977, J. Clin. Invest. 59:984-989). […] For some experiments, the maximum vWf that could be released was determined. Following incubation, the EC conditioned media were recovered and fresh media containing 0.05% (v/v) Tween 20 and 10 μM each of the protease inhibitors D-phenylalanyl-phenylalanyl-arginyl-chloromethyl ketone, D-phenylalanyl-propyl-arginyl-chloromethyl ketone and 1,5-Dansyl-glutamyl-glycyl-arginyl-chloromethyl ketone were added to the EC monolayers of each corresponding well. The cells were freeze-thawed three times and, to assure complete breakdown of the cell membranes as well as the Weibel-Palade bodies, disrupted in a glass homogenizer using a motor-driven teflon pestle. After centrifugation, total vWf concentration was determined in the supernatants.
The following procedure was followed.

[2] = test system: ECs; experiment: Cytotoxicity to ECs by dye exclusion test; assay type: cell-based, human; conditions: BTP-dioxolane preincubation
Procedure: as §2

[3] = test system: endothelial cells (ECs); experiment: PGI2 release from ECs exposed to supernatants of DDAVP-treated monocytes; assay type: cell-based, human
Procedure: (§1) Prostaglandins E2, F2a, and I2 (assayed as 6 keto-PGF1a) were assayed using the iodinated or tritiated (for PGF2a) kits purchased from Amersham Canada (Oakville, Ontario). ATP and ADP were assayed using the adenosine-5'-triphosphate bioluminescent kit from Sigma (St. Louis, Mo.). Prior to assay, ADP present in standards or in samples was converted to ATP (Holmsen et al. (1966) Anal. Biochem. 17:456-473; (1972) Anal. Biochem. 46:489-501). Luminescence was measured using a Lumi-Aggregometer (Chrono-Log Corp., Havertown, Pa.).
If the data are expressed as a percentage increase in PGI2 released from ECs exposed to supernatants from DDAVP-treated compared to untreated monocytes, in order to control for variability in the basal response between the various monocyte and EC preparations, a 60% increase in PGI2 release was observed (P<0.05).

[4] = test system: monocytes; experiment: PAF secretion from monocytes (RIA); assay type: cell-based, human
Excerpt: In addition, PAF was extracted from the monocyte supernatants and assayed using the following highly specific and sensitive radioimmunoassay. As the most predominant bioactive forms of PAF secreted by monocytes are the C16 and C18 alkyl moieties (Sugiura and Waku, (1987) Platelet-Activating Factor and Related Lipid Mediators, F. Snyder Ed. Plenum Press, N.Y. 55-85; Prescott et al. (1990) Proc. Natl. Acad. Sci. U.S.A. 81:3534-3538), PAF was quantitated using the highly specific and sensitive ^125 I-RIA kit manufactured by NEN Research Products (Du Pont Canada, Mississauga, Ontario, Canada) following extraction of the monocyte supernatants with 5 mL each of methanol and chloroform and 3.5 mL of water per mL of sample. The recovered chloroform layers, dried under nitrogen, were reconstituted in the PAF assay kit buffer prior to analysis. The development, specificity, and sensitivity of this assay for the C16 and C18 forms of PAF have been previously documented (Smal et al. (1989) Molec. Immunol. 26:711-719; (1990) J. Molec. Recognition 3:169-173; (1990) J. Immunol. Methods 128:183-188; (1990) J. Reprod. Fert. 90:419-425). […] Iodinated samples were counted on a Beckman Gamma 5500 counter (Beckman Instruments, Fullerton, Calif.). The 3H-PAF (10 Ci/mmole) and ^125 I-PAF (2200 Ci/mmole) consisted of a 1:1 admixture of the C16 and Cla forms of PAF.
Alternatively, PAF that has previously associated with monocytes following initial secretion may be released again into the supernatant.

[5] = test system: monocytes; experiment: Cytokine secretion from monocytes (ELISA); assay type: cell-based, human; conditions: 100 ng DDAVP/mL, 30 min
Excerpt: Cytokines, IL-1β, IL-6, IL-8, TNF-α, GM-CSF, and G-CSF were quantitated by specific ELISA using human recombinant cytokines as standards. The Quantikine™ kits for measuring IL-1β, IL-6, IL-8, TNF-α and G-CSF were purchased from R & D Systems (Minneapolis, Minn.). The GM-CSF assay kit came from Genzyme Corp. (Boston, Mass.). The minimum detectable levels of cytokines were: 4.5 pg/mL (IL-1β), 3.5 pg/mL (IL-6), 4.7 pg/mL (IL-8), 4.8 pg/mL (TNF-α), 11.2 pg/mL (G-CSF) and 10.0 pg/mL (GM-CSF).

[6] = test system: von Willebrand factor and factor VIII; conditions: cited from earlier work
[7] = test system: endothelial cells; conditions: direct DDAVP treatment; cited from earlier work
[8] = test system: monocytes; experiment: Secretion of prostaglandins and adenine nucleotides from monocytes; assay type: cell-based, human; conditions: 100 ng DDAVP/mL, 30 min
Procedure: as §1

[9] = test system: endothelial cells (ECs); experiment: vWf release from ECs exposed to supernatants of DDAVP-treated monocytes (vWf releasing factor)
Procedure: Media with or without thrombin (@5 units/mL) served as positive and negative controls respectively. […] The EC conditioned media were recovered, centrifuged to remove any cell debris, and then frozen at -80° C. for a maximum period of 4 weeks prior to analyses. […] Where appropriate ECs were preincubated with BTP-dioxolane which was not cytotoxic to the cells as determined by the dye exclusion test.
as §3
Following centrifugation at 300×g for 15 minutes at 20° C., the top layer of plasma was recovered and respun at 2,000×g for 15 minutes to provide cell-free autologous plasma. The remaining plasma and buffy coat were resuspended, adjusted to 35 mL per 60 mL volume of whole blood with PBS (Dulbecco's phosphate buffered saline-Gibco BRL), and layered over 12 ml of Histopaque 1077 (Sigma). The MNC recovered by centrifugation at 300×g for 30 minutes were washed 3×in PBS+5% (v/v) fetal calf serum (FCS; Flow Laboratories, McLean, Va.). The cell concentration was adjusted to 5×10^6 /mL in RPMI+5% FCS and then added to the pretreated tissue culture plates described by Hashemi et al. (1990, supra).
The method of Freundlich and Avdolomic (1983, Use of Gelatin/Plasma Coated Flasks for Isolating Human Peripheral Blood Monocytes, J. Immunol. Methods, 62:31-37) as modified by Hashemi et al. (1990, supra) was used to purify monocytes from mononuclear cells. The mononuclear cell suspension (5×10^6 cells/mL) was incubated for 18-20 hours at 37° C. in a CO2 incubator. The monocytes were harvested with 10 mM EDTA (Gibco Laboratories) in RPMI+5% FCS and following centrifugation were washed 3×in media and resuspended in serum-free medium (DMEM/F12, Gibco) containing 1% Nutridoma-HU (Boehringer-Mannheim Canada, Laval, Quebec). The recovered cells met morphological criteria for monocytes and were 90% positive for monocyte CD14 surface marker determined by direct immunofluorescence using fluorescent conjugated anti-Leu-M3 (CD14) monoclonal antiserum (Becton-Dickinson, Mountain View, Calif.). Cell viability was greater than 90% as determined by trypan blue dye exclusion (Gibco). […] Cell suspensions were incubated in sterile Petri dishes, previously coated with 2% gelatin for 1 hour at 37° C., for 30-minutes or for 1, 2, 4, 6 and 24 hours. Monocyte-conditioned media were centrifuged at 2,000×g for 15 minutes and frozen at -80° C. prior to incubation with the EC monolayer cultures. For some experiments, conditioned media were lipid extracted as described prior to the PAF radioimmunoassay below. The dried extracts were reconstituted with fresh DMEM/F12+1% Nutridoma-HU media, briefly sonicated and added to EC cultures.

[10] = test system: endothelial cells (ECs); experiment: vWf release from ECs exposed directly to PAF or thrombin
Procedure: Synthetic PAF (1-O-alkyl-2-acetyl-sn-glyceryl-3-phosphorylcholine; Sigma #P-9525) prepared from bovine heart lecithin (Demopoulos et al. (1979) J. Biol. Chem. 254: 9355-358) was 99% pure by TLC analysis, HPLC analysis indicated this product consisted of 70% C16 and 13% C18 forms of PAF (Mita et al., (1989) Anal. Biochem. 180:131-135). After removal of chloroform, PAF was resuspended in DMEM/F12 culture medium containing 1% Nutridoma-HU (final protein concentration of 40 μM stock solution). After sonication for 3×1 minute periods, the PAF solution was diluted and used immediately.
Media with or without thrombin (@5 units/mL) served as positive and negative controls respectively. ECs were incubated for 1, 10, 20 or 30 minutes and 1, 2, 4, 6 and 24 hours in the PAF and thrombin time course studies. The EC conditioned media were recovered, centrifuged to remove any cell debris, and then frozen at -80° C. for a maximum period of 4 weeks prior to analyses. […] Where appropriate ECs were preincubated with BTP-dioxolane which was not cytotoxic to the cells as determined by the dye exclusion test.
as §3, §4
In order to examine the responsiveness of ECs to direct PAF exposure, we incubated the monolayers of ECs with 0-300 pico molar (pM) PAF for a period of 4 hours at 37° C. and determined the amount of vWf released into the EC media. […] To determine the time course of PAF effects on vWf release, 300 pM PAF was incubated with monolayers of ECs for 1, 10, 20 and 30 minutes as well as for 1, 2, 4, 6 and 24 hours. […] As a control, the vWf release from thrombin stimulated ECs was also determined (FIG. 5).

Chain of PAF receptor (P25105 whole entry): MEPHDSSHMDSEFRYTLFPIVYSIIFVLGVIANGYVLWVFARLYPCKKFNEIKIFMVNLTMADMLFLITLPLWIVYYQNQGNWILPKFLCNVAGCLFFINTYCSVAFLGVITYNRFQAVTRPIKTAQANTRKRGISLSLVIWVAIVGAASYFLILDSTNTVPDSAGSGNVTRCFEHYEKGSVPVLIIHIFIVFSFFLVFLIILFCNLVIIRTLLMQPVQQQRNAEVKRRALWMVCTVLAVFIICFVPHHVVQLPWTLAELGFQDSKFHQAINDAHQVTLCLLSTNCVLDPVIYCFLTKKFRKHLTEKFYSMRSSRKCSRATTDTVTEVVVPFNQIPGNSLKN

## COc1cc([C@H]2OC[C@H](c3cc(OC)c(OC)c(OC)c3)O2)cc(OC)c1OC (racemic) [BTP-dioxolane]
[1]; supernatants from monocytes treated with 100 ng DDAVP/mL, P <0.001
  % Inhibition of vWf release: 82%
[1]; supernatants from untreated monocytes (DDAVP 0 ng/mL), P <0.005
  % Inhibition of vWf release: 68%
[1]; thrombin 5 U/mL, P <0.025
  % Inhibition of vWf release: 15%
[1]; preincubated 10 minutes with ECs, final concentration 10 μM
  inhibition of the PAF-dependent release of vWf: effective inhibition of the PAF-dependent release of vWf
[1]; read-out: % Inhibition of vWf release, 10 μM BTP-dioxolane, PAF 100 pM, P <0.001
  inhibition at 10 µM: 74.7 ± 4%
[1]; read-out: % Inhibition of vWf release, 10 μM BTP-dioxolane, PAF 300 pM, P <0.005
  inhibition at 10 µM: 83.2 ± 11%
[1]; read-out: % Inhibition of vWf release, 10 μM BTP-dioxolane, supernatants from monocytes treated with 100 ng DDAVP/mL, P <0.001
  inhibition at 10 µM: 81.8 ± 7%
[1]; read-out: % Inhibition of vWf release, 10 μM BTP-dioxolane, supernatants from untreated monocytes (DDAVP 0 ng/mL), P <0.005
  inhibition at 10 µM: 68.4 ± 10.4%
[1]; read-out: % Inhibition of vWf release, 10 μM BTP-dioxolane, thrombin 5 U/mL, P <0.025
  inhibition at 10 µM: 14.7 ± 4%
[1]; read-out: inhibition of the effects of PAF on vWf release from ECs, BTP-dioxolane 10 μM, 100 pM or 300 pM PAF
  inhibition at 10 µM: 75 to 83%
[2]
  cytotoxicity to ECs: not cytotoxic

## NC(=O)CC[C@@H]1NC(=O)[C@H](Cc2ccccc2)NC(=O)[C@H](Cc2ccc(O)cc2)NC(=O)CCSSC[C@@H](C(=O)N2CCC[C@H]2C(=O)N[C@H](CCCN=C(N)N)C(=O)NCC(N)=O)NC(=O)[C@H](CC(N)=O)NC1=O [DDAVP, 1-deamino-8-D-arginine vasopressin]
[3]; DDAVP-treated compared to untreated monocyte supernatants, P<0.05
  increase in PGI2 release from ECs: 60%
[3]; supernatants from DDAVP-treated monocytes, cf. 332±107 untreated, corrected for PGI2 in supernatants
  PGI2 release from ECs: 538 ± 136 pg/mL
[4]; 100 ng DDAVP/mL vs unstimulated, at any point in time, 30 min to 24 h, FIG. 7A
  time course of PAF in monocyte supernatants: higher levels of PAF present in post-DDAVP monocyte supernatants
[4]; 100 ng DDAVP/mL, 2-4 hours, FIG. 7A
  time course of PAF secretion from monocytes: declined sharply
[4]; 100 ng DDAVP/mL, 6 hours, FIG. 7A
  time course of PAF secretion from monocytes: increased again
[4]; 100 ng DDAVP/mL, 24 hours, FIG. 7A
  time course of PAF secretion from monocytes: still elevated
[4]; 30 minutes exposure, (169 nM)
  DDAVP concentration of maximum PAF secretion from monocytes: 200 ng DDAVP/mL
[4]; 30 minutes, estimated
  ED50 for PAF secretion from monocytes: 85 ng DDAVP/mL
[4]; FIG. 1B, 100 ng DDAVP/mL, 30 min, cf. 94 pM untreated, P<0.001
  PAF release from monocytes: 284 pM
[4]; at 200 ng DDAVP/mL (169 nM), 30 minutes
  maximum PAF secretion from monocytes: 480 fmol/mL
[5]; n=6, N.S. vs 0 ng/mL: 4 ± 3
  TNF-α secreted: 0 ± 0 pg/mL
[5]; n=6, N.S. vs 0 ng/mL: 23 ± 9
  IL-6 secreted: 26 ± 2 pg/mL
[5]; n=6, N.S. vs 0 ng/mL: 319 ± 118
  IL-1β secreted: 271 ± 93 pg/mL
[5]; n=12, N.S. vs 0 ng/mL: 690 ± 257
  IL-8 secreted: 639 ± 214 pg/mL
[6]; Mannucci et al.
  plasma concentration of von Willebrand factor and factor VIII in vivo: causes an increase in the plasma concentration
[6]; patients with mild or moderate haemophilia A or von Willebrand disease and normal individuals
  plasma concentration of von Willebrand factor and factor VIII: increase the plasma concentration
[7]
  secretion of vWf by endothelial cells in vitro: no increased secretion of vWf
[8]
  effect on secretion of PGE2, PGF2a, PGI2, ATP or ADP from monocytes: no significant effect
[8]; n=5, N.S. vs 0 ng/mL: 16.8 ± 5.5
  ADP secreted: 17.6 ± 12.2 nM
[8]; n=5, N.S. vs 0 ng/mL: 333 ± 116
  PGF2α secreted: 406 ± 124 pg/mL
[8]; n=6, N.S. vs 0 ng/mL: 10.3 ± 6.6
  ATP secreted: 7.4 ± 4.4 nM
[8]; n=9, N.S. vs 0 ng/mL: 106 ± 17
  PGI2 secreted: 107 ± 18 pg/mL
[8]; n=10, N.S. vs 0 ng/mL: 3.61 ± 0.80
  PGE2 secreted: 4.37 ± 1.70 pg/mL
[9]; FIG. 1A, supernatants from monocytes with 100 ng DDAVP/mL 30 min, ECs 4 hours, n=26, cf. 104% untreated, P<0.001
  vWf release from ECs: 186%
[9]; FIG. 3, DDAVP-treated monocytes (100 ng/mL), reconstituted lipid extract, n=7, cf. 71% untreated, P<0.05
  enhancement of vWf release from ECs by lipid extracts of supernatants: 195%
[9]; Table 1, IL-1β to G-CSF set, monocytes with 100 ng DDAVP/mL 30 min, ECs 4 hours, n=6, P <0.05 vs 0 ng/mL: 131 ± 15
  vWf releasing factor (%): 234 ± 35%
[9]; Table 1, IL-8 set, 100 ng DDAVP/mL 30 min, ECs 4 hours, n=12, P <0.05 vs 0 ng/mL: 147 ± 29
  vWf releasing factor (%): 291 ± 58%
[9]; Table 2, ATP/ADP set, 100 ng DDAVP/mL 30 min, ECs 4 hours, n=6, P <0.025 vs 0 ng/mL: 99 ± 17
  vWf releasing factor (%): 211 ± 33%
[9]; Table 2, PGE2/PGF2α set, 100 ng DDAVP/mL 30 min, ECs 4 hours, n=10, P <0.01 vs 0 ng/mL: 122 ± 16
  vWf releasing factor (%): 307 ± 62%
[9]; Table 2, PGI2 set, 100 ng DDAVP/mL 30 min, ECs 4 hours, n=9, P <0.05 vs 0 ng/mL: 153 ± 35
  vWf releasing factor (%): 347 ± 66%
[9]; supernatants from DDAVP-stimulated vs unstimulated monocytes, except at 2 hours, FIG. 7B
  time course of vWf release from ECs: consistently higher levels of vWf released
[9]; supernatants from DDAVP-treated monocytes, ECs 4 hours
  DDAVP concentration of maximum vWf release from ECs: 100 ng DDAVP/mL
[9]; supernatants from DDAVP-treated monocytes, ECs 4 hours, estimated
  ED50 for vWf release from ECs: 45 ng DDAVP/mL
[9]; supernatants from monocytes treated with 100 ng DDAVP/mL 30 min, ECs 4 hours, n=5, 0 ng/mL: 92.6 ± 14.7%
  Increase in vWf release (%), BTP-dioxolane absent: 197.2 ± 22.8%
[9]; supernatants from monocytes with 10-800 ng DDAVP/mL, ECs 4 hours at 37° C.
  vWf release from ECs, dose response: significant increases in vWf release were observed at all concentrations tested

## Thrombin
[10]; thrombin 5 U/mL, 4 hours, n=5
  Increase in vWf release (%), BTP-dioxolane absent: 123.5 ± 11.3%
[10]; thrombin (5 units/mL), 10 minutes, P<0.001
  vWf release from ECs (optimal effect): 368%
[10]; thrombin (5 units/mL), 30 minutes
  vWf release from ECs: 261%
[10]; thrombin (5 units/mL), 1 hour
  vWf release from ECs: 137%
[10]; thrombin (5 units/mL), 24 hours
  vWf release from ECs: 88%
